Assay results from patent US20080138812A1, “Screening Method For Competitive Hiv Rt Inhibitors” (priority 2005, published 2008).

Assays:
[1] = tested on: site-directed mutant of wild-type HIV-1 (HXB2) that contains the K103N and Y181C mutation; test: anti-viral cellular assay, MT4 cells, MTT readout, NNRTI-resistant mutant virus; format: cell-based; details: Human immunodeficiency virus 1, HXB2, MT4
Protocol: HIV- or mock-infected MT4 cells were incubated for five days in the presence of various concentrations of the test compound. At the end of the incubation period, the replicating virus in the control cultures had killed all HIV-infected cells in the absence of any inhibitor. Cell viability was determined by measuring the concentration of MTT, a yellow, water soluble tetrazolium dye that is converted to a purple, water insoluble formazan in the mitochondria of living cells only. Upon solubilization of the resulting formazan crystals with isopropanol, the absorbance of the solution was monitored at 540 nm. The values correlate directly to the number of living cells remaining in the culture at the completion of the five day incubation. The inhibitory activity of the compound was monitored on the virus-infected cells and was expressed as EC50 and EC90. These values represent the amount of the compound required to protect 50% and 90%, respectively, of the cells from the cytopathogenic effect of the virus. The toxicity of the compound was measured on the mock-infected cells and was expressed as CC50, which represents the concentration of compound required to inhibit the growth of the cells by 50%. […] Wherever results are reported as e.g. pEC50 or pCC50 values, the result is expressed as the negative logarithm of the result expressed as EC50 or CC50 respectively. […]

[2] = target: T1, HIV Reverse Transcriptase (Human immunodeficiency virus type 1 group M subtype B, UniProt P04585); test: in vitro inhibition of HIV reverse transcriptase in presence and absence of ATP or other nucleoside phosphates (kit TRK 1022); format: biochemical
T1 construct: purchased Amersham Life Sciences TRK 1022
Protocol: The assay was run using kit TRK 1022™ (Amersham Life Sciences) according to the manufacturer's instructions with slight modifications. Test compounds were diluted in steps of ¼ in 100% DMSO and subsequently diluted 1/50 in Medium A (RPMI 1640+10% fetal calf serum, […] gentamycin).
In each experiment three conditions were tested: wells filled with 25 μl of the above compound solutions, wells filled with 25 μl 2% DMSO in Medium A (RO) and wells filled with 100 μl Stopsolution and 25 μl DMSO in Medium A (RI). To each well was added 25.5 μl master mix (5 μl primer/template beads, 10 μl assay buffer, 0.5 μl tracer (50 μM [3H]-dTTP), 5 μl HIV RT enzyme solution (15 mU/μl), 5 μl Medium A). The plates were sealed, and incubated during 4 hours at 37° C. Subsequently, 100 μl stop solution was added to each well (except RI). The radioactivity was counted in a TopCount™.
For testing compound inhibition in the presence of ATP the same protocol as above was used but the Medium A in the master mix was replaced with Medium A containing 320 mM ATP.
The procedures of example 1 were repeated but ATP was changed by a number of other nucleoside phosphates. The following table lists the tested nucleoside phosphates and the IC50 values in μM of compound 1 obtained in the presence of the concerned nucleoside phosphate.

[3] = tested on: wild-type HIV-1 (LAI strain); test: anti-viral cellular assay, HIV-infected MT4 cells, MTT readout, wild-type virus; format: cell-based; details: Human immunodeficiency virus 1, 120 h, five days
Protocol: The test compounds are examined for anti-viral activity in a cellular assay performed according to the following procedure.
HIV- or mock-infected MT4 cells were incubated for five days in the presence of various concentrations of the test compound. At the end of the incubation period, the replicating virus in the control cultures had killed all HIV-infected cells in the absence of any inhibitor. Cell viability was determined by measuring the concentration of MTT, a yellow, water soluble tetrazolium dye that is converted to a purple, water insoluble formazan in the mitochondria of living cells only. Upon solubilization of the resulting formazan crystals with isopropanol, the absorbance of the solution was monitored at 540 nm. The values correlate directly to the number of living cells remaining in the culture at the completion of the five day incubation. The inhibitory activity of the compound was monitored on the virus-infected cells and was expressed as EC50 and EC90. These values represent the amount of the compound required to protect 50% and 90%, respectively, of the cells from the cytopathogenic effect of the virus. […] Wherever results are reported as e.g. pEC50 or pCC50 values, the result is expressed as the negative logarithm of the result expressed as EC50 or CC50 respectively.

HIV RT = HIV RT (Human immunodeficiency virus type 1 group M subtype B, UniProt P04585); test: enzyme kinetics studies (1/v versus 1/[dTTP]); format: biochemical; details: 40-3 μM dTTP, 2-0 μM compound, poly(rA)oligo(dT); lines cross at Y-axis intercept
Protocol: The enzyme kinetics studies were carried out using a protocol involving a 4×5 matrix of varying substrate and inhibitor concentrations over ranges of 40-3 μM of dTTP and 2-0 μM of compound 1.
The reaction mixtures (50 μl) further contained 50 mM Tris.HCl (pH 7.8), 5 mM dithiothreitol, […], 500 μM EDTA, 150 mM KCl, 5 mM MgCl2, 0.15 mM of the template/primer poly(rA)oligo(dT) and 0.06% Triton X-100.
The reaction mixtures were incubated at 37° C. for 15 min, at which time 100 μl of calf thymus DNA (150 pg/ml), 2 ml of Na4P2O7 (0.1 M in 1 M HCl), and 2 ml of trichloroacetic acid (10% v/v) were added. The solutions were kept on ice for 30 min, after which the acid-insoluble material was washed and analyzed for radioactivity. When the reciprocal of the reaction velocity (1/v) is plotted against the reciprocal of the substrate concentration (1/[dTTP]) in the presence of different concentrations of compound 1, the graph (See FIG. 1) is obtained.

## Cn1c2ccccc2c2c1cc(C#N)c(=O)n2-c1ccc([N+](=O)[O-])cc1 [Compound 1]
[1]
  EC50: 98 nM
[2]; in the absence of ATP
  IC50: 300 nM
[2]; in the presence of ADP
  IC50: 23 nM
[2]; in the presence of AMP
  IC50: 17.8 nM
[2]; in the presence of ATP (Medium A in master mix containing 320 mM ATP)
  IC50: 16 nM
[2]; in the presence of ATPbgNH
  IC50: 24.5 nM
[2]; in the presence of ATPgS
  IC50: 12.4 nM
[2]; in the presence of CTP
  IC50: 114 nM
[2]; in the presence of GTP
  IC50: 70.4 nM
[2]; in the presence of PPi
  IC50: 199 nM
[2]; in the presence of UTP
  IC50: 51.9 nM
[3]
  EC50: 45 nM
HIV RT
  mode of HIV RT inhibition: competitive mode of HIV RT inhibition
